Values of other authors, collected in US20050009919A1, “Treating cachexia and excessive catabolism with (-)-hydroxycitric acid” (priority 2003, published 2005).

In the case of `O=C(O)CC(O)(C(=O)O)C(O)C(=O)O` (single isomer, unassigned; (-)) [HCA, (−)-Hydroxycitric acid], the “Appetite suppression in clinical trials” value (Heymsfield 1998, Mattes 2000) is given as “failed to produce appetite suppression” and the “Weight change in clinical trials” value (Heymsfield 1998, Mattes 2000) is given as “not-statistically-significant trends toward weight elevation”.

For “calcium (−)-hydroxycitrate [reference compound]”, the “Anorectic results in clinical trials” value (1.2 grams to 3 grams of HCA per day, divided doses before meals) is given as “failed to produce anorectic results”.
